Source: the NIST ThermoML archive (doi:10.1021/je050317k)
± gives the expanded uncertainty stated by the source.

Conditions: Liquid

C=CCCl [3-chloro-1-propene]
vapor or sublimation pressure (333.15 K): 164.65 ± 1.6 kPa | vapor or sublimation pressure (373.1 K): 489.25 ± 3.4 kPa

O=C1CCCO1 [γ-butyrolactone]
vapor or sublimation pressure (383.15 K): 5.15 ± 0.087 kPa

CC#N [acetonitrile]
vapor or sublimation pressure (333.15 K): 49.16 ± 0.53 kPa | vapor or sublimation pressure (393.15 K): 297.37 ± 2.1 kPa | vapor or sublimation pressure (453.15 K): 1096.9 ± 7 kPa

C1CO1 [oxirane]
vapor or sublimation pressure (298.15 K): 174.71 ± 1.6 kPa | vapor or sublimation pressure (348.15 K): 766.7 ± 5 kPa

C=CCCC=C [1,5-hexadiene]
vapor or sublimation pressure (333.15 K): 103.15 ± 1.3 kPa | vapor or sublimation pressure (373.1 K): 316.61 ± 2.2 kPa

CC(=O)OC(C)C [1-methylethyl ethanoate]
vapor or sublimation pressure (333.15 K): 37.73 ± 0.44 kPa | vapor or sublimation pressure (393.15 K): 249.59 ± 1.8 kPa | vapor or sublimation pressure (453.15 K): 939.9 ± 6 kPa

Cl/C=C\CCl [(Z)-1,3-dichloro-1-propene]
vapor or sublimation pressure (333.15 K): 22.61 ± 0.25 kPa | vapor or sublimation pressure (353.15 K): 47.29 ± 0.42 kPa

C=CCl [chloroethene]
vapor or sublimation pressure (273.1 K): 172 ± 1.8 kPa | vapor or sublimation pressure (313.15 K): 601.5 ± 4 kPa

OCCCCO [1,4-butanediol]
vapor or sublimation pressure (383.15 K): 0.664 ± 0.064 kPa

CC(Cl)CCl (stereo unspecified) [1,2-dichloropropane]
vapor or sublimation pressure (333.15 K): 30.14 ± 0.27 kPa | vapor or sublimation pressure (353.15 K): 61.07 ± 0.44 kPa

CC(C)C [2-methylpropane]
vapor or sublimation pressure (298.15 K): 352.39 ± 2.8 kPa | vapor or sublimation pressure (348.15 K): 1212.7 ± 7.9 kPa

Oc1ccccc1 [phenol]
vapor or sublimation pressure (373.1 K): 5.506 ± 0.12 kPa | vapor or sublimation pressure (433.15 K): 53.23 ± 0.37 kPa

CC(=O)c1ccccc1 [acetophenone]
vapor or sublimation pressure (373.1 K): 3.573 ± 0.091 kPa | vapor or sublimation pressure (433.15 K): 32.02 ± 0.24 kPa
